Usually ILS stands for the gain in survival time of treated over control animals, in per cent. The low end stands for little gain in survival, the high end for much gain in survival. By logP is commonly meant a log measure of how a compound divides between an organic and an aqueous phase.

Drawing on ChEMBL document CHEMBL1122548, “1-Aryl-3,3-dimethyltriazenes: potential central nervous system active analogues of 5-(3,3-dimethyl-1-triazeno)imidazole-4-carboxamide (DTIC)” (J Med Chem, 1984), this text covers ILS and logP for 20 compounds.

The subject of series [1] is Mus musculus. The series can be described thus: Percent increase in life span was measured in B6C3F1 mice after implanting murine Ependymoblastoma cells(ic) at an intraperitoneal optimal dose of 128 mg/ (kg injection).
Series [2] has as its system Mus musculus. Kind of series: Maximum increase in life span was measured in B6d2F1 mice after implanting murine leukemia L1210 cells(ip, 10e5 cells) at an intraperitoneal optimal dose of 39 mg/ (kg day)(qd 1-9). The class given is functional.
The test system of series [3] is Mus musculus. Kind of series: Maximum increase in life span was measured in B6d2F1 mice after implanting murine leukemia L1210 cells(ic, 10e4 cells) at an intracerebral optimal dose of 160 mg/ (kg day)(qd 1-9). The class given is functional.
The nature of series [4]: Partition coefficient (logP). Conditions: octanol/water. In kind it is physicochemical.
Series [5] relates to Mus musculus. The series can be described thus: Maximum increase in life span was measured in B6d2F1 mice after implanting murine leukemia L1210 cells(ip, 10e5 cells) at an intraperitoneal optimal dose of 108 mg/ (kg day)(qd 1-9). The class given is functional.
The test system of series [6] is Mus musculus. Kind of series: Percent increase in life span was measured in B6C3F1 mice after implanting murine Ependymoblastoma cells(ic) at an intraperitoneal optimal dose of 64 mg/ (kg injection).
Series [7] relates to Mus musculus. The series can be described thus: Maximum increase in life span was measured in B6d2F1 mice after implanting murine leukemia L1210 cells(ic, 10e4 cells) at an intracerebral optimal dose of 40 mg/ (kg day)(qd 1-9). In kind it is functional.
Series [8] relates to Mus musculus. The series can be described thus: Percent increase in life span was measured in B6C3F1 mice after implanting murine Ependymoblastoma cells(ic) at an intraperitoneal optimal dose of 32 mg/ (kg injection).
Series [9] concerns Mus musculus. Kind of series: Maximum increase in life span was measured in B6d2F1 mice after implanting murine leukemia L1210 cells(ic, 10e4 cells) at an intracerebral optimal dose of 80 mg/ (kg day)(qd 1-9). The class given is functional.
The subject of series [10] is Mus musculus. Kind of series: Maximum increase in life span was measured in B6d2F1 mice after implanting murine leukemia L1210 cells(ic, 10e4 cells) at an intracerebral optimal dose of 40 mg/(kg day)(qd 1-9). In kind it is functional.
The test system of series [11] is Mus musculus. The series can be described thus: Maximum increase in life span was measured in B6d2F1 mice after implanting murine leukemia L1210 cells(ip, 10e5 cells) at an intraperitoneal optimal dose of 65 mg/(kg day)(qd 1-9). The class given is functional.
The test system of series [12] is Mus musculus. The series can be described thus: Maximum increase in life span was measured in B6d2F1 mice after implanting murine leukemia L1210 cells(ip, 10e5 cells) at an intraperitoneal optimal dose of 65 mg/ (kg day)(qd 1-9). In kind it is functional.
The subject of series [13] is Mus musculus. The series can be described thus: Maximum increase in life span was measured in B6d2F1 mice after implanting murine leukemia L1210 cells(ic, 10e4 cells) at an intracerebral optimal dose of 20 mg/ (kg day)(qd 1-9). In kind it is functional.
For series [14], the system named is Mus musculus. Kind of series: Percent increase in life span was measured in B6C3F1 mice after implanting murine Ependymoblastoma cells(ic) at an intraperitoneal optimal dose of 8 mg/ (kg injection).
The subject of series [15] is Mus musculus. The series can be described thus: Percent increase in life span was measured in B6d2F1 mice after implanting B16 melanoma cells(ic) at an intracerebral (ic) optimal dose of 40-80 mg/ (kg day). In kind it is functional.
For series [16], the system named is Mus musculus. The series can be described thus: Maximum increase in life span was measured in B6d2F1 mice after implanting murine leukemia L1210 cells(ip, 10e5 cells) at an intraperitoneal optimal dose of 300 mg/ (kg day)(qd 1-9). In kind it is functional.
Series [17] deals with Mus musculus. Kind of series: Percent increase in life span was measured in B6d2F1 mice after implanting B16 melanoma cells(ic) at an intracerebral (ic) optimal dose of 10-40 mg/ (kg day). The class given is functional.

With `COC(=O)c1cccc(/N=N/N(C)C)c1`, the results for the ILS in the series on Mus musculus [1], in the series with Mus musculus [2] and in the series on Mus musculus [3] were 62%, 30% and 10%, respectively. In addition, in [4] (read-out: logP), the logP was found to be 2.77.

On to `CN(C)/N=N/c1c(Br)cccc1Br`, for which the results for the increase in life span (ILS) in the series on Mus musculus [5] and in the series with Mus musculus [3] were 44% and 14%, respectively. In addition, the logP in [4] (read-out: logP) came to 4.31.

For `COC(=O)c1ccc(/N=N/N(C)C)cc1`, the results for the ILS in the series with Mus musculus [6], in the series with Mus musculus [2] and in the series on Mus musculus [3] were 64%, 40% and 7%, respectively. In addition, the logP in series [4] (read-out: logP) turned out to be 2.77.

As for `CN(C)/N=N/c1cccc(C(N)=O)c1`, the ILS in the series with Mus musculus [2] was 50%; with Mus musculus [7] it was 22%. Further, the log partition coefficient (logP) in series [4] (read-out: logP) is 1.21.

In the case of `CN(C)/N=N/c1ccc(C(=O)O)cc1`, the ILS in the series on Mus musculus [2] is listed as 41%; in the series with Mus musculus [8], 18%; in the series with Mus musculus [9] it was 25%. In [4], this compound yielded a logP of -1.77.

With `COC(=O)c1ccccc1/N=N/N(C)C`, the results for the ILS in the series on Mus musculus [10] and in the series on Mus musculus [11] were 14% and 11%, respectively. The logP in [4] (read-out: logP) came to 2.72.

Turning to `CN(C)/N=N/c1ccccc1Cl`, the ILS with Mus musculus [12] was 21%; in the series on Mus musculus [1] it was 38%; with Mus musculus [9], 5%.

Regarding `CN(C)/N=N/c1ccccc1C(=O)O`, the ILS was found to be 12% with Mus musculus [12], 6% with Mus musculus [13] and 2% in the series on Mus musculus [14]. Besides, the logP in series [4] (read-out: logP) is -2.66.

`CN(C)/N=N/c1ccc(C(N)=O)cc1`: the ILS in the series with Mus musculus [2] is 40%; in the series with Mus musculus [15], 30%; in the series with Mus musculus [3], 45%; in the series on Mus musculus [8], 62%. This compound also had a logP in [4] of 1.2.

Take `CN(C)/N=N/c1c(Cl)cccc1Cl`: the ILS in the series on Mus musculus [5] is given as 39%; in the series with Mus musculus [3], 12%. The logP in series [4] (read-out: logP) is 4.01.

On to `CN(C)/N=N/c1cccc(Cl)c1`, for which the ILS in the series with Mus musculus [5] turned out to be 11%; in the series with Mus musculus [7], 7%. Besides, the lipophilicity (logP) in series [4] (read-out: logP) was 3.3.

For `CC(=O)c1ccccc1/N=N/N(C)C`, the ILS amounted to 0% in the series with Mus musculus [5] and 9% in the series on Mus musculus [7]. Besides, in series [4] (read-out: logP), the logP was 2.19.

On to `CC(=O)c1cccc(/N=N/N(C)C)c1`, for which the ILS is reported as 55% with Mus musculus [12] and 6% in the series with Mus musculus [7]. In [4] (read-out: logP), the logP stood at 2.19.

With `CN(C)/N=N/c1ccccc1C(N)=O`, the ILS in the series with Mus musculus [12] and with Mus musculus [7] was 10% each time.

In the case of `CN(C)/N=N/c1ccc(I)cc1`, the ILS with Mus musculus [16] is on record as 5%. Further, in series [4] (read-out: logP), the logP is 3.71.

The compound `CN(C)/N=N/c1ccc(Br)cc1` returned an ILS in the series with Mus musculus [16] of 0%. Further, the logP in series [4] (read-out: logP) was found to be 3.45.

As for `CC(=O)c1ccc(/N=N/N(C)C)cc1`, the ILS in the series on Mus musculus [5] was 16%; in the series on Mus musculus [13] it was 5%. In addition, the logP in series [4] (read-out: logP) came out at 2.19.

With `CN(C)/N=N/c1ccc(F)cc1`, in the series with Mus musculus [16], the ILS is given as 16%. Further, the logP in series [4] (read-out: logP) is 2.73.

Consider `CN(C)/N=N/c1ccc(Cl)cc1`, for which the ILS with Mus musculus [5] is recorded as 26%; in the series on Mus musculus [9] it was 2%. For the same compound, the logP in series [4] (read-out: logP) stood at 3.3.

For `CN(C)/N=N/c1[nH]cnc1C(N)=O` [DACARBAZINE], the ILS in the series with Mus musculus [6] amounted to 60%; with Mus musculus [5], 50%; with Mus musculus [3], 18%; with Mus musculus [17], 8%. In series [4], this compound had a logP of -0.24.
